# “And” between values parts separate entries of the source, which are not always exact repeats. Identical values can stand only once.
# Columns and labels:
# [1] = Skeletal muscle concentration of enantiomers after oral dosing of mice; format: in vivo, male BALB/c mice; conditions: individual mice
# Description: (§1) In addition to plasma, skeletal muscle and brain tissue was also taken at less frequent time points (0.5, 2, 6, 24 and 48 h) and prepared for analysis by homogenization of 50 mg of tissue with 100 μL of acetonitrile. The samples were transferred to Waters 96-well plate and the sample was evaporated under nitrogen gas flow. The sample was reconstituted into 150 μl of 50% methanol:water and analysed by LC/MS. […] These samples were then prepared for analysis in the same way as the samples. […] QC samples from racemic-N-Acetyl-Leucine were prepared into concentrations of 40, 400 and 4000 ng/mL, corresponding to 20, 200 and 200 ng/mL concentration of both D- and L-enantiomers, respectively. […] QC samples were then prepared for analysis in the same way as the samples.
# (§2) Quantification by HPLC was performed using a Supelco Astec CHIROBIOTIC T chiral HPLC column (2.1 x 150 mm, 5 μm particle size) with a Waters Acquity UPLC + Thermo Q-Exactive hybrid Orbitrap MS, using ESI negative polarity, nitrogen auxiliary gas (450°C), capillary voltage was 2000 and 350°C and controlled with the software Xcalibur 4.1. Samples were injected as a 4-μL volume and eluted with a gradient of buffer A (20 mM ammonium acetate) and buffer B (methanol) with a flow rate of 0.3 mL/min and column oven temperature of 30°C. The gradient was 80% A at 0 min; 20% A at 3.5 min and 80% A at 4.5 min Parallel Reaction Monitoring (PRM) and Full-MS-dd-MS2 were measured at the same time. […] Ions with aforementioned m/z was then collided and leucine fragment (m/z 130 or 134) was used in quantitation. In full-MS-dd-MS2 mode, every ion with intensity over a certain intensity was collided and fragments analyzed.
# [2] = Plasma pharmacokinetics of N-acetyl-leucine enantiomers after oral dosing of mice
# Description: The animals were weighed on the day prior to dosing. The compound was administered to male BALB/c mice (n = 3 per time point) p.o. (100 mg/kg; 10 mL/kg) by oral gavage. Blood samples were collected into potassium EDTA tubes by venepuncture from the saphenous vein. Within 30 min following the sampling, blood was centrifuged for plasma separation (room temperature; 10 min; 2700 xg). The plasma samples were transferred into plastic tubes, frozen and stored at –20°C.
# The plasma samples were prepared for analysis by mixing 50 μL of plasma with 100 μL of acetonitrile and mixed. In addition to plasma, skeletal muscle and brain tissue was also taken at less frequent time points (0.5, 2, 6, 24 and 48 h) and prepared for analysis by homogenization of 50 mg of tissue with 100 μL of acetonitrile. The samples were transferred to Waters 96-well plate and the sample was evaporated under nitrogen gas flow. The sample was reconstituted into 150 μl of 50% methanol:water and analysed by LC/MS. Standard plasma samples were prepared by spiking the injection solution with concentrations from 1 to 10 000 ng/mL by using one volume of spiking solution and nine volumes of injection solution. These samples were then prepared for analysis in the same way as the samples. […] QC samples from racemic-N-Acetyl-Leucine were prepared into concentrations of 40, 400 and 4000 ng/mL, corresponding to […] concentration of both D- and L-enantiomers, respectively. […] QC samples were then prepared for analysis in the same way as the samples.
# Quantification by HPLC was performed using a Supelco Astec CHIROBIOTIC T chiral HPLC column (2.1 x 150 mm, 5 μm particle size) with a Waters Acquity UPLC + Thermo Q-Exactive hybrid Orbitrap MS, using ESI negative polarity, nitrogen auxiliary gas (450°C), capillary voltage was […] and controlled with the software Xcalibur 4.1. Samples were injected as a 4-μL volume and eluted with a gradient of buffer A (20 mM ammonium acetate) and buffer B (methanol) with a flow rate of 0.3 mL/min and column oven temperature of 30°C. The gradient was 80% A at 0 min; 20% A at 3.5 min and 80% A at 4.5 min Parallel Reaction Monitoring (PRM) and Full-MS-dd-MS2 were measured at the same time. […] Ions with aforementioned m/z was then collided and leucine fragment (m/z 130 or 134) was used in quantitation. In full-MS-dd-MS2 mode, every ion with intensity over a certain intensity was collided and fragments analyzed.
# Plasma pharmacokinetic parameters of the N-acetyl-leucine enantiomers were calculated using Phoenix 64 (Build 6.4.0.768) WinNonlin (version 6.4) software, using non-compartmental method with sparse sampling. Nominal doses were used for all animals. The terminal phase half-life (T1/2), the time for 50% of the plasma concentration to decrease after some point of elimination, was calculated by least-squares regression analysis of the terminal linear part of the log concentration–time curve using the relationship 0.693/ke. The area under the plasma concentration–time curve (AUC), an estimation of plasma drug exposure over time, was determined with the linear trapezoidal rule for increasing values and log trapezoidal rule for decreasing values up to the last measurable concentration (AUC0-last). The first order elimination rate constant ke was calculated as the slope (minimum 3 points) from the terminal log plasma concentration time curve. The maximum concentration (Cmax) and the time taken to achieve the peak concentration (Tmax) after oral dose were obtained directly from the plasma concentration data without interpolation. The theoretical background and interpretation of the pharmacokinetic data was based on. Where appropriate, data are expressed as the mean ± standard error of the mean. Means were statistically analysed by either pre-planned t tests or a one-sample t test comparing the measured value with the expected value.
# [3] = Brain concentration of enantiomers after oral dosing of mice; format: in vivo, male BALB/c mice
# Description: as §1, §2
# [4] = design: method as in Neuzil et al. 2002; conditions: humans, oral absorption; ref Neuzil et al. 2002; cited from earlier work
# [5] = 0.30 h after p.o. N-Acetyl-DL-Leucine 100 mg/kg
# [6] = 2.00 h after p.o. N-Acetyl-DL-Leucine 100 mg/kg
# [7] = male, BALB/c, mouse, skeletal muscle, oral, 100 mg/kg, 0.30 h after p.o. N-Acetyl-DL-Leucine 100 mg/kg
# [8] = 0.15 h after p.o. N-Acetyl-L-Leucine 100 mg/kg, individual mice
# [9] = 0.30 h after p.o. N-Acetyl-L-Leucine 100 mg/kg, individual mice
# [10] = 1.00 h after p.o. N-Acetyl-L-Leucine 100 mg/kg, individual mice
# [11] = 2.00 h after p.o. N-Acetyl-L-Leucine 100 mg/kg, individual mice
# [12] = 4.00 h after p.o. N-Acetyl-L-Leucine 100 mg/kg, individual mice
# [13] = 6.00 h after p.o. N-Acetyl-L-Leucine 100 mg/kg, individual mice
# [14] = 8.00 h after p.o. N-Acetyl-L-Leucine 100 mg/kg, individual mice
# [15] = 24.0 h after p.o. N-Acetyl-L-Leucine 100 mg/kg, individual mice
# [16] = 32.0 h after p.o. N-Acetyl-L-Leucine 100 mg/kg, individual mice
# [17] = 48.0 h after p.o. N-Acetyl-L-Leucine 100 mg/kg, individual mice
# [18] = male, BALB/c, mouse, in vivo, po, 100 mg/kg
# [19] = male, BALB/c, mouse, plasma, oral, 100 mg/kg, concentration in plasma, 0.30 h after p.o. N-Acetyl-L-Leucine 100 mg/kg, individual mice
# [20] = male, BALB/c, mouse, plasma, oral, 100 mg/kg, concentration in plasma, 6.00 h after p.o. N-Acetyl-L-Leucine 100 mg/kg, individual mice
# [21] = male, BALB/c, mouse, plasma, po, 100 mg/kg
# [22] = plasma, after oral N-Acetyl-L-Leucine, nominal dose 100 mg/kg
# [23] = plasma, after oral N-Acetyl-L-Leucine, nominal dose 100 mg/kg, 100 mg/kg
# [24] = plasma, after oral N-Acetyl-L-Leucine, nominal dose 100 mg/kg, listed as L-enantiomer, 100 mg/kg
# [25] = plasma, after oral N-Acetyl-L-Leucine, nominal dose 100 mg/kg, listed as D-enantiomer, 100 mg/kg
compound,measurement,setting,value
"CC(=O)N[C@@H](CC(C)C)C(=O)O [N-Acetyl-L-Leucine, N-acetyl-L-leucine]",concentration in muscle,[1]; [5],605 ng/mL and 566 ng/mL
same,concentration in muscle,[1]; [6],364 ng/mL and 154 ng/mL and 193 ng/mL
same,concentration in muscle,[1]; 6.00 h after p.o. N-Acetyl-DL-Leucine 100 mg/kg,159 ng/mL and 189 ng/mL
same,concentration in muscle,[1]; 24.0 h after p.o. N-Acetyl-DL-Leucine 100 mg/kg,195 ng/mL and 153 ng/mL
same,concentration in muscle,[1]; 48.0 h after p.o. N-Acetyl-DL-Leucine 100 mg/kg,102 ng/mL
same,concentration at 0.3 h,[1]; [7],469 ng/mL
same,concentration at 6 h,"[1]; male, BALB/c, mouse, skeletal muscle, oral, 100 mg/kg, 6.00 h after p.o. N-Acetyl-DL-Leucine 100 mg/kg",108 ng/mL
same,concentration at 24 h,"[1]; male, BALB/c, mouse, skeletal muscle, oral, 100 mg/kg, 24.0 h after p.o. N-Acetyl-DL-Leucine 100 mg/kg",136 ng/mL
same,concentration at 48 h,"[1]; male, BALB/c, mouse, skeletal muscle, oral, 100 mg/kg, 48.0 h after p.o. N-Acetyl-DL-Leucine 100 mg/kg",124 ng/mL
same,concentration in plasma,[2]; [8],9090 ng/mL and 12400 ng/mL and 28900 ng/mL
same,concentration in plasma,[2]; [9],7520 ng/mL and 10500 ng/mL
same,concentration in plasma,[2]; [10],1590 ng/mL and 4280 ng/mL and 5300 ng/mL
same,concentration in plasma,[2]; [11],73 ng/mL and 663 ng/mL and 502 ng/mL
same,concentration in plasma,[2]; [12],131 ng/mL and 139 ng/mL and 304 ng/mL
same,concentration in plasma,[2]; [13],<LoQ and 114 ng/ml
same,concentration in plasma,[2]; [14],<LoQ
same,concentration in plasma,[2]; [15],<LoQ
same,concentration in plasma,[2]; [16],<LoQ
same,concentration in plasma,[2]; [17],<LoQ
same,actual dose proportionality for AUC,"[2]; male, BALB/c, mouse, in vivo",4.6 fold
same,actual dose proportionality for Cmax,"[2]; male, BALB/c, mouse, in vivo",4.9 fold
same,Clast,[2]; [18],623 ng/mL
same,Cmax,[2]; [18],3410 ng/mL
same,Tmax,[2]; [18],< 15 min
same,half-life,[2]; [18],24 min
same,k el,[2]; [18],0.000778 s⁻¹
same,ke,[2]; [18],2.8
same,concentration at 0.3 h,[2]; [19],7510 ng/mL
same,concentration at 6 h,[2]; [20],222 ng/mL
same,Cmax,[2]; [21],16800 ng/mL
same,Tmax,[2]; [21],< 15 min
same,half-life,[2]; [21],17.4 min
same,k el,[2]; [21],0.000667 s⁻¹
same,Clast,[2]; [22],168 ng/mL
same,ke,[2]; [22],2.4
same,AUC0-last,[2]; [23],11 400 h x ng/mL
same,Tlast,[2]; [23],6.00 h
same,AUC0-last,[2]; [24],11400 h x ng/mL
same,Tlast,[2]; [24],6 h
same,detection in brain,"[3]; following oral dosing with the racemate, Fig 6B",not detectable at any time point
"CC(=O)N[C@H](CC(C)C)C(=O)O [N-Acetyl-D-Leucine, N-acetyl-D-leucine]",concentration in muscle,[1]; [5],4370 ng/mL and 3590 ng/mL
same,concentration in muscle,[1]; 0.30 h after p.o. N-Acetyl-L-Leucine 100 mg/kg,1110 ng/mL and 1520 ng/mL
same,concentration in muscle,[1]; [6],335 ng/mL and 396 ng/mL and 829 ng/mL
same,concentration in muscle,[1]; 2.00 h after p.o. N-Acetyl-L-Leucine 100 mg/kg,119 ng/mL and 109 ng/mL
same,concentration at 0.3 h,[1]; [7],2860 ng/mL
same,concentration at 0.3 h,"[1]; male, BALB/c, mouse, skeletal muscle, oral, 100 mg/kg, 0.30 h after p.o. N-Acetyl-L-Leucine 100 mg/kg",1090 ng/mL
same,concentration at 2 h,"[1]; male, BALB/c, mouse, skeletal muscle, oral, 100 mg/kg, 2.00 h after p.o. N-Acetyl-L-Leucine 100 mg/kg",112 ng/mL
same,concentration in plasma,[2]; [8],391 ng/mL and 336 ng/mL
same,concentration in plasma,[2]; [9],463 ng/mL and 388 ng/mL
same,concentration in plasma,[2]; [10],116 ng/mL and 144 ng/mL and 248 ng/mL
same,concentration in plasma,[2]; [11],<LoQ and 45.6 ng/ml
same,concentration in plasma,[2]; [12],<LoQ
same,concentration in plasma,[2]; [13],<LoQ and 21.4 ng/ml
same,concentration in plasma,[2]; [14],15.0 ng/ml and <LoQ
same,concentration in plasma,[2]; [15],<LoQ
same,concentration in plasma,[2]; [16],<LoQ
same,concentration in plasma,[2]; [17],<LoQ
same,actual dose proportionality for AUC,"[2]; male, BALB/c, mouse, in vivo",101 fold
same,actual dose proportionality for Cmax,"[2]; male, BALB/c, mouse, in vivo",197 fold
same,Clast,[2]; [18],247 ng/mL
same,Cmax,[2]; [18],86100 ng/mL
same,Tmax,[2]; [18],< 15 min
same,half-life,[2]; [18],18.6 min
same,k el,[2]; [18],0.000611 s⁻¹
same,ke,[2]; [18],2.2
same,concentration at 0.15 h,"[2]; male, BALB/c, mouse, plasma, oral, 100 mg/kg, concentration in plasma, 0.15 h after p.o. N-Acetyl-L-Leucine 100 mg/kg, individual mice",582 ng/mL
same,concentration at 0.3 h,[2]; [19],392 ng/mL
same,concentration at 2 h,"[2]; male, BALB/c, mouse, plasma, oral, 100 mg/kg, concentration in plasma, 2.00 h after p.o. N-Acetyl-L-Leucine 100 mg/kg, individual mice",33.4 ng/mL
same,concentration at 6 h,[2]; [20],23.3 ng/mL
same,concentration at 8 h,"[2]; male, BALB/c, mouse, plasma, oral, 100 mg/kg, concentration in plasma, 8.00 h after p.o. N-Acetyl-L-Leucine 100 mg/kg, individual mice",17.3 ng/mL
same,Cmax,[2]; [21],436 ng/mL
same,Tmax,[2]; [21],< 15 min
same,half-life,[2]; [21],15 min
same,k el,[2]; [21],0.000472 s⁻¹
same,AUC0-last,[2]; [22],573 h x ng/mL
same,ke,[2]; [22],1.7
same,Clast,[2]; [23],16.2 ng/mL
same,Tlast,[2]; [23],8.00 h
same,Clast,[2]; [25],16 ng/mL
same,Tlast,[2]; [25],8 h
same,concentration in brain,"[3]; 0.30 h after p.o. N-Acetyl-DL-Leucine 100 mg/kg, individual mice",357 ng/mL and 491 ng/mL and 888 ng/mL
same,concentration in brain,"[3]; 2.00 h after p.o. N-Acetyl-DL-Leucine 100 mg/kg, individual mice",<LoQ
same,concentration at 2 h,"[3]; male, BALB/c, mouse, brain, oral, 100 mg/kg, 2.00 h after p.o. N-Acetyl-DL-Leucine 100 mg/kg, individual mice",117 ng/mL
"CC(=O)NC(CC(C)C)C(=O)O (racemic) [N-Acetyl-DL-Leucine, N-acetyl-DL-leucine]",elimination half-life,[4],60 to 108 min

# From publication PMC7046201, “Unexpected differences in the pharmacokinetics of N-acetyl-DL-leucine enantiomers after oral dosing and their clinical relevance” (PLoS ONE, 2020)
